The record followed here is US20230000842A1, “METHODS OF TREATING CARTILAGE DISORDERS THROUGH INHIBITION OF CLK AND DYRK” (SAMUMED, LLC, priority 2019, published 2023).

For test [1], the system named is primary human mesenchymal stem cells (hMSCs). Nature of the test: Chondrogenesis screening using primary human mesenchymal stem cells. The following applies: Homo sapiens, Mesenchymal stem cells, hMSC chondrogenesis; for EC50: concentration required to induce 50% levels of chondrogenesis with TGF-β3 as positive control, read-out: Conc (nM) of 50% TGF-β3 activity; for Emax: maximum activity relative to TGF-β3 (10 ng/mL) positive control, read-out: Max. Activity as % TGF-β3 activity. In kind it is cell-based. The essentials: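 Derived values are EC50 for 50% chondrogenesis, maximal activity and the dose giving it. These come from nodule area in passage 3–6 primary hMSCs, expressed as fold change over the mean of 3 same-plate DMSO wells, 2–3 replicates per concentration. TGF-β3 served as positive control.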

In test [2] the test system is Wnt pathway activity (SW480 colon carcinoma cells stably expressing the Sp5-Luc reporter). Nature of the test: Wnt pathway activity screening assay (Sp5-Luc reporter gene assay). The following applies: Homo sapiens.
The subject of test [3] is MMP-3 levels in supernatant of chondrocytes stimulated with IL1-β. Nature of the test: Chondrocyte protection assay compound screening (MMP-3 LANCE Ultra). The following applies: Homo sapiens, Chondrocyte, IL1-β 10 ng/mL overnight, 11-point curves from 3 μM to 0.05 nM; for Emax: read-out: Maximum % Inhibition. In kind it is cell-based, human. The essentials: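 Primary human chondrocytes (passage 2–5) in differentiation medium were stimulated with 10 ng/mL IL1-β for an overnight incubation at 37 °C. MMP-3 in 1:7-diluted supernatant was read by TR-FRET immunoassay against a standard curve, normalised to IL1-β-stimulated wells; EC50 and maximum % inhibition came from nonlinear regression.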

The next test has as its target CLK2 kinase (Homo sapiens, UniProt P49760). The test is described as follows: CLK2 kinase activity assay (Z-lyte FRET).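 Also: FRET read-out as coumarin to fluorescein emission ratio, unphosphorylated peptide as 0% and phosphorylated peptide as 100% controls, duplicate reactions, non-linear regression fit of dose-response curves.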 The following applies: Z-lyte Ser/Thr 6 peptide, 60 μM ATP, 1 h at room temperature. Format: biochemical.
For another test, the target named is CLK3 kinase (Homo sapiens, UniProt P49761). The test is described as follows: CLK3 kinase activity assay (Z-lyte FRET).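 Also: kinase activity read as coumarin/fluorescein emission ratio by FRET, unphosphorylated peptide as 0% and phosphorylated peptide as 100% control, values from non-linear regression of dose-response curves.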 In kind it is biochemical. Particulars: Z-lyte Ser/Thr 18 peptide, 156 μM ATP, 1 h at room temperature.
Sequence of CLK3 kinase (P49761 whole entry): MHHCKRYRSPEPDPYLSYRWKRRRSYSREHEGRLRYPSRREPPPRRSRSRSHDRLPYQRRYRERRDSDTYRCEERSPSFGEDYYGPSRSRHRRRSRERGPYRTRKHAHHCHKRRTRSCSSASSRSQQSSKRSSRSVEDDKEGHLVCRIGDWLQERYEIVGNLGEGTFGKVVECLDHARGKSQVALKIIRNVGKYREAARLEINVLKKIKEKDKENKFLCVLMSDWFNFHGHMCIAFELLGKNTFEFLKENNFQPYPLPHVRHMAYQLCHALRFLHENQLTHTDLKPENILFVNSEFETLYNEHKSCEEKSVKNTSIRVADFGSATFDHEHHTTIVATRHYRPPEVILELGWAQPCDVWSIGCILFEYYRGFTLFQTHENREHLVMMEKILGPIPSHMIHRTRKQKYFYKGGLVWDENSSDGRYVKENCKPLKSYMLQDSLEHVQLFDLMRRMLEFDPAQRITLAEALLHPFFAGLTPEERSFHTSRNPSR
Where [4] appears, read: SW480, Table 4, SW480 cells stably expressing Sp5-Luc reporter, 10-point dose-response from 10 μM, 36 to 48 hours.

Sequence of CLK2 kinase (P49760 whole entry): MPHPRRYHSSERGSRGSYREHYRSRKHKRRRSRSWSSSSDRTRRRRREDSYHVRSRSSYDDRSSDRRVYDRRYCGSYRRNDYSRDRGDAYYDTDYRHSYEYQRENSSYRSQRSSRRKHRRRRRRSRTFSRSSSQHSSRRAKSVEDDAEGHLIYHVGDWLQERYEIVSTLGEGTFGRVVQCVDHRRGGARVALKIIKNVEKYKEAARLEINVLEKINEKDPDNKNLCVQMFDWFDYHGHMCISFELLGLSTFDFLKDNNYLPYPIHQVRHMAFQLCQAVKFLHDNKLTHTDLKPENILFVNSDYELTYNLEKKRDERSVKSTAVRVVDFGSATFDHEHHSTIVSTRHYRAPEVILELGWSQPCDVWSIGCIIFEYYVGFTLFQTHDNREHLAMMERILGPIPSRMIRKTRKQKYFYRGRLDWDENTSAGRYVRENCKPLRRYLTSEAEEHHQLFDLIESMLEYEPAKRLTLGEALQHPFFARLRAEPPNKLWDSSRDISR
Method for CLK2 kinase: This is a non-radioactive assay using fluorescence resonance energy transfer (FRET) between coumarin and fluorescein to detect kinase activity which is represented as a ratio of coumarin emission/fluorescein emission.
The mixture was allowed to incubate with the representative compounds for one hour at room temperature. All reactions were performed in duplicate. Unphosphorylated (“0% Control”) and phosphorylated (“100% control”) forms of Ser/Thr 6 served as control reactions. Additionally, an 11-point dose-response curve of Staurosporine (1 μM top) was run to serve as a positive compound control.
After incubation, Development Reagent A was diluted in Development Buffer then added to the reaction and allowed to further incubate for one hour at room temperature.
Dose-response curves were generated and inhibitory concentration (IC50) values were calculated using non-linear regression curve fit in the Dotmatics' Studies Software (Bishops Stortford, UK).

Regarding `Cc1cn(-c2cncc3[nH]c(-c4n[nH]c5ccc(-c6cncc(NC(=O)C(C)(C)C)c6)nc45)nc23)cn1` [compound 222], the EC50 is 100 nM in test [1]; more than 10000 nM in test [2] (setting [4]); 1150 nM in test [3]; 3 nM at CLK2 kinase; 263 nM on CLK3 kinase. For the same compound, the Emax came out at 150% in test [1] and 64.9% in test [3].

Consider `O=C(Nc1ccc(CN2CCCC2)cc1)c1n[nH]cc1/C=C/c1cccnc1` [compound 17], for which the EC50 in test [1] turned out to be 900 nM; in test [2] (setting [4]), 988 nM; in test [3] it was 3.7 nM; on CLK2 kinase, 17 nM; at CLK3 kinase, 2670 nM. In addition, the Emax in test [1] was 194%; in test [3], 64.7%.

As for `O=C1CCc2cccc(c2)-c2cncc(c2)NC(=O)c2n[nH]c3ccc(cc23)-c2cncc(c2)CN1` [compound 622], the EC50 in test [1] was 30 nM; in test [2] (setting [4]) it was more than 10000 nM; in test [3], 10 nM; on CLK2 kinase, 5 nM; on CLK3 kinase it was 36 nM. The Emax in test [1] turned out to be 69.4%; in test [3] it was 83.8%.

As for `CC(C)CC(=O)Nc1cncc(-c2cc3c(-c4nc5c(-c6cc(F)cc(OCCN7CCCC7)c6)cncc5[nH]4)n[nH]c3cn2)c1` [compound 298], the Emax is 20.3% in test [1] and 23.2% in test [3]. The EC50 in test [2] (setting [4]) was more than 10000 nM; in test [3] it was not below 3000 nM; on CLK2 kinase it was 1 nM; at CLK3 kinase, 13 nM.

As to `O=C(CC1CCNCC1)Nc1cncc(-c2ccc3[nH]nc(-c4cc5c(N6CCCCC6)nccc5[nH]4)c3n2)c1` [compound 462], the Emax worked out at 21.8% in test [1] and 99.9% in test [3]. Besides, the EC50 in test [2] (setting [4]) was more than 10000 nM; in test [3], 1470 nM; at CLK2 kinase, 2 nM; on CLK3 kinase, 48 nM.

Turning to `CN1CCN(c2nccc3[nH]c(-c4n[nH]cc4/C=C/c4cncc(F)c4)nc23)CC1` [compound 25], the Emax in test [1] was 39%; in test [3], 91.9%. Further, the EC50 in test [2] (setting [4]) was 325 nM; in test [3], not below 3000 nM; on CLK2 kinase it was 1 nM; at CLK3 kinase it was 326 nM.

With `CCCC(=O)Nc1cncc(-c2ccc3[nH]nc(-c4nc5c(N6CCCCC6)cncc5[nH]4)c3c2)c1` [compound 208], the Emax in test [1] was 77.3%; in test [3], 39%. Further, the EC50 in test [2] (setting [4]) came out at 42 nM; in test [3] it was 20.5 nM; on CLK2 kinase it was 4 nM; on CLK3 kinase, 58 nM.

Regarding `O=C(Nc1c[nH]nc1C(=O)Nc1cncc(-c2cccc(F)c2)c1)c1cncc(OC2CCNCC2)c1` [compound 14], the Emax was determined as 89.5% in test [1] and 71.9% in test [3]. Moreover, the EC50 is 1600 nM in test [2] (setting [4]), 339 nM in test [3], 10 nM at CLK2 kinase and 4300 nM at CLK3 kinase.

As for `c1cncc(-c2ccc3[nH]nc(-c4nc5c(N6CCOCC6)cncc5[nH]4)c3c2)c1` [compound 220], the Emax in test [1] turned out to be 90.4%; in test [3] it was 100%. The EC50 stood at 23 nM in test [2] (setting [4]), 13.6 nM in test [3], 1 nM on CLK2 kinase and 61 nM at CLK3 kinase.

For `CN(C)Cc1cncc(-c2cnc3[nH]nc(-c4nc5c(-c6cccs6)cncc5[nH]4)c3c2)c1` [compound 260], the EC50 is 30 nM in test [1]; 48 nM in test [2] (setting [4]); not below 3000 nM in test [3]; 1 nM at CLK2 kinase; 128 nM on CLK3 kinase. The Emax in test [1] turned out to be 146%.

Turning to `CC(C)Oc1ccc(NC(=O)c2n[nH]c3ccc(-c4cncc(CN5CC6CC(C5)O6)c4)cc23)cn1` [compound 102], the EC50 in test [1] came out at 30 nM; in test [2] (SW480) it was 61 nM; in test [3], 0.2 nM; on CLK2 kinase, 2 nM; on CLK3 kinase, 88 nM. Moreover, the Emax amounted to 75.7% in test [1] and 26.3% in test [3].

As to `Fc1ccc(-c2nnc(-c3n[nH]cc3/C=C/c3cccnc3)o2)cc1` [compound 23], the Emax in test [1] came out at 23.4%; in test [3] it was 51.7%. In addition, the EC50 in test [2] (setting [4]) is 1510 nM; in test [3], not below 3000 nM; on CLK2 kinase it was 27 nM; on CLK3 kinase it was 627 nM.
